These results are taken from ChEMBL document CHEMBL5505964, “HDAC/NAMPT dual inhibitors overcome initial drug-resistance in p53-null leukemia cells” (Eur J Med Chem, 2024).

Experiment [1] has as its target T1, Protein deacetylase HDAC6 (Homo sapiens, UniProt Q9UBN7).
T1 sequence (Q9UBN7 whole entry): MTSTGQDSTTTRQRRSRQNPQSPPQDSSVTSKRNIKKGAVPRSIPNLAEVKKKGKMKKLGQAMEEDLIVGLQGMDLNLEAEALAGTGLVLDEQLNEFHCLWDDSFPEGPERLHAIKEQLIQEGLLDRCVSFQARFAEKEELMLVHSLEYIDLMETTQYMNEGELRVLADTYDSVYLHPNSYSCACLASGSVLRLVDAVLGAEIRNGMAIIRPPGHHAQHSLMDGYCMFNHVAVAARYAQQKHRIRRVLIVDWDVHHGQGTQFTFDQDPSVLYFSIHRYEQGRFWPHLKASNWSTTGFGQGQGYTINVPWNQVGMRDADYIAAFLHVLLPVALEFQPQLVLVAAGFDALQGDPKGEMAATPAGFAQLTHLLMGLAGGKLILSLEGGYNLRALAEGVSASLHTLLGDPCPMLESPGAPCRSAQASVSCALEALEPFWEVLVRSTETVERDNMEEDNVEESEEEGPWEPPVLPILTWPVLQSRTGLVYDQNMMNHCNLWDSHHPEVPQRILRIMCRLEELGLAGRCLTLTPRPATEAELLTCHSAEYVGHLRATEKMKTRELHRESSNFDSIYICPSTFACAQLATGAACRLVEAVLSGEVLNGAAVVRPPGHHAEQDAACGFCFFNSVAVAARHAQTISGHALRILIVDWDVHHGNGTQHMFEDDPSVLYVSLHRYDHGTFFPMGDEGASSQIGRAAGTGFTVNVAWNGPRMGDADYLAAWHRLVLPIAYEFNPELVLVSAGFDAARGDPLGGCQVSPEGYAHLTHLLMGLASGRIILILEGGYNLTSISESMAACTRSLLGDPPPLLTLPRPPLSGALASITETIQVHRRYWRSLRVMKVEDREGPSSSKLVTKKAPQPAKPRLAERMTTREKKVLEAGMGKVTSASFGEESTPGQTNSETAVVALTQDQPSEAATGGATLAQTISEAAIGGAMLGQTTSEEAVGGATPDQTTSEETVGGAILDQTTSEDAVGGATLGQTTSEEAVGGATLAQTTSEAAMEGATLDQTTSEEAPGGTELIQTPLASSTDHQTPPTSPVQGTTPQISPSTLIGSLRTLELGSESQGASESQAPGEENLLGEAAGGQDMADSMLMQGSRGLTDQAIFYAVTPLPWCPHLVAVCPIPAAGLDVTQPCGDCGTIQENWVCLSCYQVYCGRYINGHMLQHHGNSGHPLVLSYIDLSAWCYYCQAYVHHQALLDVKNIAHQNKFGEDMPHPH
Briefly: Inhibition of N-terminal GST-tagged human full length recombinant HDAC6 (1 to 1215 residues) expressed in baculovirus-infected Sf9 cells using Boc-Lys-(acetyl)-AMC as substrate preincubated with enzyme for 1 hr followed by substrate addition and measured after 2 hrs by fluorescence analysis.

Experiment [2] addresses T2, Histone deacetylase 11 (Homo sapiens, UniProt Q96DB2).
T2 sequence (Q96DB2 whole entry): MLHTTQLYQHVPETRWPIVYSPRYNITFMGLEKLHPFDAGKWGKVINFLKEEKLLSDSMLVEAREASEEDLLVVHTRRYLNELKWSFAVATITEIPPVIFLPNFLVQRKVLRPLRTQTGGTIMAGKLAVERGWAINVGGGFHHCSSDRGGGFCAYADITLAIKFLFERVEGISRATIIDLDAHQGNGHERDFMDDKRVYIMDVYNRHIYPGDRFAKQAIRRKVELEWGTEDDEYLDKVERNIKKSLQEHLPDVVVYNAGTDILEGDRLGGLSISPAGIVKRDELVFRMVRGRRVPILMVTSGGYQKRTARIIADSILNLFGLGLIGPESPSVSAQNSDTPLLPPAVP
Description: Inhibition of full length human recombinant HDAC11 (1 to 347 residues) expressed in baculovirus-infected Sf9 cells using Boc-Lys-(trifluoroacetyl)-AMC as substrate preincubated with enzyme for 1 hr followed by substrate addition and measured after 2 hrs by fluorescence analysis.

Experiment [3] relates to MV4-11. Briefly: cells. The experiment is classed as functional, cell-based. The note with it: Homo sapiens; for GI50: MV4-11, time 48 hrs.
For experiment [4], the target named is T3, Histone deacetylase 8 (Homo sapiens, UniProt Q9BY41).
T3 sequence (Q9BY41 whole entry): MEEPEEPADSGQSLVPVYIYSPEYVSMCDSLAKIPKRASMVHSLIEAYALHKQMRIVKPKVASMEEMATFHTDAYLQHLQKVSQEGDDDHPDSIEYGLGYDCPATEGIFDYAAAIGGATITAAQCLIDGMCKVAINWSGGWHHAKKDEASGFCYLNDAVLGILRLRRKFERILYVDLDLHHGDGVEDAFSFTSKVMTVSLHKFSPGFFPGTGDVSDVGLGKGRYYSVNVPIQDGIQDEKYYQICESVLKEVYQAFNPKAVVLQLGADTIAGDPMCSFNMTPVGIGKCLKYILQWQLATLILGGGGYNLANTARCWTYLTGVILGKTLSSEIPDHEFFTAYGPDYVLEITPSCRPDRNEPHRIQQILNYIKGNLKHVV
Description: Inhibition of C-terminal His-tagged full length human recombinant HDAC8 (1 to 377 residues) expressed in baculovirus-infected Sf9 cells using Boc-Lys-(trifluoroacetyl)-AMC as substrate preincubated with enzyme for 1 hr followed by substrate addition and measured after 2 hrs by fluorescence analysis.

Experiment [5] deals with Histone deacetylase 4 (Homo sapiens, UniProt P56524). Description: Inhibition of C-terminal His-tagged/N-terminal GST-tagged human HDAC4 (627 to 1084 residues) expressed in baculovirus-infected Sf9 cells using Boc-Lys-(trifluoroacetyl)-AMC as substrate preincubated with enzyme for 1 hr followed by substrate addition and measured after 2 hrs by fluorescence analysis.
Sequence of Histone deacetylase 4 (P56524 whole entry, the tested form may be a part): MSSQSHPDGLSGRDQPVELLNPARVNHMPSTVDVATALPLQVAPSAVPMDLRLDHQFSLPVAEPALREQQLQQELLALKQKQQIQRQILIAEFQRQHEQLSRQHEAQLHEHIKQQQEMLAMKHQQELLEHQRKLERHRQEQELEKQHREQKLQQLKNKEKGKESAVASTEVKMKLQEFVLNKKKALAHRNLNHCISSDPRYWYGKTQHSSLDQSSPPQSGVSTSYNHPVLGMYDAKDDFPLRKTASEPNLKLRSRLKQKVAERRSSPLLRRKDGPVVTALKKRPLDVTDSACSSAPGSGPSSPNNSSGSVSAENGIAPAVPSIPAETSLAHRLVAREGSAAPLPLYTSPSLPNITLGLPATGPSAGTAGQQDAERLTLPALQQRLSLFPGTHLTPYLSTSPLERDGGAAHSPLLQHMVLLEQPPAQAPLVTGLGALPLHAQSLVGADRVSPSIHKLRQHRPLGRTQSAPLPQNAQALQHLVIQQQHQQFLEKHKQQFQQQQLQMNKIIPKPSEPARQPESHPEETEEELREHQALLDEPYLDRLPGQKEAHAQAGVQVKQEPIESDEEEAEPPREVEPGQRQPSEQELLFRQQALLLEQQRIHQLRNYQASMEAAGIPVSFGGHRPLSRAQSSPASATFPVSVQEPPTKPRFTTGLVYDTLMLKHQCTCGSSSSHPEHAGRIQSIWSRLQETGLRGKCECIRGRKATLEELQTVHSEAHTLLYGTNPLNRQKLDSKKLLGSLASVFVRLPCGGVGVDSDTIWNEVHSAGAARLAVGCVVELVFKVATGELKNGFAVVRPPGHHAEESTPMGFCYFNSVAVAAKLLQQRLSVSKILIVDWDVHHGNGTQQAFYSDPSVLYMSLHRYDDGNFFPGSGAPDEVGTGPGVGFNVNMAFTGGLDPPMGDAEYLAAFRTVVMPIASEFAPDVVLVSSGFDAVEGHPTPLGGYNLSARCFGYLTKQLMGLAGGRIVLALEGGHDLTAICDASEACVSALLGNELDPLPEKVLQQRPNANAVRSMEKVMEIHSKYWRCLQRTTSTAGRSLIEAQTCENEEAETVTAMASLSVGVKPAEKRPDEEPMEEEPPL
For experiment [6], the system named is HL-60. Description: Antiproliferative activity against p53-null human HL-60 cells assessed as inhibition of cell growth incubated for 48 hrs by resazurin dye based fluorescence analysis. It counts as functional. (In general: The colour change of resazurin is a common sign of viable cells or microbes.)
Experiment [7] addresses Histone deacetylase 5 (Homo sapiens, UniProt Q9UQL6). Briefly: Inhibition of C-terminal His-tagged human HDAC5 catalytic domain (656 to 1122 residues) expressed in baculovirus-infected Sf9 cells using Boc-Lys-(trifluoroacetyl)-AMC as substrate preincubated with enzyme for 1 hr followed by substrate addition and measured after 2 hrs by fluorescence analysis.
Experiment [8] relates to MV4-11. Briefly: Antiproliferative activity against human MV4-11 cells harboring wild type p53 assessed as induction of cell death incubated for 48 hrs by resazurin dye based fluorescence analysis. To be noted: read-out: LD50 (the source's name). It counts as functional.
The subject of experiment [9] is HL-60. Briefly: Antiproliferative activity against p53-null human HL-60 cells assessed as induction of cell death incubated for 48 hrs in presence of nicotinamide mononucleotide by resazurin dye based fluorescence analysis. It counts as functional. The note with it: read-out: LD50 (the source's name).
Experiment [10] addresses Histone deacetylase 9 (Homo sapiens, UniProt Q9UKV0). Description: Inhibition of C-terminal His-tagged human recombinant HDAC9 (604 to 1066 residues) expressed in baculovirus-infected Sf9 cells using Boc-Lys-(trifluoroacetyl)-AMC as substrate preincubated with enzyme for 1 hr followed by substrate addition and measured after 2 hrs by fluorescence analysis.

Some results are limits rather than exact numbers.

Sequence of Histone deacetylase 9 (Q9UKV0 whole entry, the tested form may be a part): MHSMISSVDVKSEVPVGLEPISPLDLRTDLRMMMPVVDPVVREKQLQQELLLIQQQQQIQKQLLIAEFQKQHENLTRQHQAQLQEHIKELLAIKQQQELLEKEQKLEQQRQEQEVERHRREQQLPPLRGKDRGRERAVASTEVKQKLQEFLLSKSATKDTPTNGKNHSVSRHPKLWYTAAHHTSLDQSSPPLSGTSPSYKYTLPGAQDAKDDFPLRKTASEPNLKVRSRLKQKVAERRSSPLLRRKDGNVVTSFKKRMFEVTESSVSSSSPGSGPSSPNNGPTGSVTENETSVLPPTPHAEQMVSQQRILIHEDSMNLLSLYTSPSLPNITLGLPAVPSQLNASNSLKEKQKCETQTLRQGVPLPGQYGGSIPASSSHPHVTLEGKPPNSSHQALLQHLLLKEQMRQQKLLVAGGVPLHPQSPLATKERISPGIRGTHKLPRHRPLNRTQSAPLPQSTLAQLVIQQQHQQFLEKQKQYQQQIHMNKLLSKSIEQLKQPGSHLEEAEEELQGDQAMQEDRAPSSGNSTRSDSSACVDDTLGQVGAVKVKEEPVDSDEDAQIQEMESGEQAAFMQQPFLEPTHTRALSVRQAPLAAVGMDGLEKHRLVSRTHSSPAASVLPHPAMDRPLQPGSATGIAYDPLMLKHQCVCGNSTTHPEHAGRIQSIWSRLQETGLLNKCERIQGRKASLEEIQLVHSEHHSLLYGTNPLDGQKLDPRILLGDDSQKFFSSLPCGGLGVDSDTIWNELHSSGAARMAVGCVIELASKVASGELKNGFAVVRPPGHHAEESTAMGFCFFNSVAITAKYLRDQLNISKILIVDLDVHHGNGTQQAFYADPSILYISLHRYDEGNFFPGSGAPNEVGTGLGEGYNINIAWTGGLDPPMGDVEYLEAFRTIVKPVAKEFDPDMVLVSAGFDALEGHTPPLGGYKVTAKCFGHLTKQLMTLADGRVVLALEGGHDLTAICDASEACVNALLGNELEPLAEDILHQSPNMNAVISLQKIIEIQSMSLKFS
Sequence of Histone deacetylase 5 (Q9UQL6 whole entry, the tested form may be a part): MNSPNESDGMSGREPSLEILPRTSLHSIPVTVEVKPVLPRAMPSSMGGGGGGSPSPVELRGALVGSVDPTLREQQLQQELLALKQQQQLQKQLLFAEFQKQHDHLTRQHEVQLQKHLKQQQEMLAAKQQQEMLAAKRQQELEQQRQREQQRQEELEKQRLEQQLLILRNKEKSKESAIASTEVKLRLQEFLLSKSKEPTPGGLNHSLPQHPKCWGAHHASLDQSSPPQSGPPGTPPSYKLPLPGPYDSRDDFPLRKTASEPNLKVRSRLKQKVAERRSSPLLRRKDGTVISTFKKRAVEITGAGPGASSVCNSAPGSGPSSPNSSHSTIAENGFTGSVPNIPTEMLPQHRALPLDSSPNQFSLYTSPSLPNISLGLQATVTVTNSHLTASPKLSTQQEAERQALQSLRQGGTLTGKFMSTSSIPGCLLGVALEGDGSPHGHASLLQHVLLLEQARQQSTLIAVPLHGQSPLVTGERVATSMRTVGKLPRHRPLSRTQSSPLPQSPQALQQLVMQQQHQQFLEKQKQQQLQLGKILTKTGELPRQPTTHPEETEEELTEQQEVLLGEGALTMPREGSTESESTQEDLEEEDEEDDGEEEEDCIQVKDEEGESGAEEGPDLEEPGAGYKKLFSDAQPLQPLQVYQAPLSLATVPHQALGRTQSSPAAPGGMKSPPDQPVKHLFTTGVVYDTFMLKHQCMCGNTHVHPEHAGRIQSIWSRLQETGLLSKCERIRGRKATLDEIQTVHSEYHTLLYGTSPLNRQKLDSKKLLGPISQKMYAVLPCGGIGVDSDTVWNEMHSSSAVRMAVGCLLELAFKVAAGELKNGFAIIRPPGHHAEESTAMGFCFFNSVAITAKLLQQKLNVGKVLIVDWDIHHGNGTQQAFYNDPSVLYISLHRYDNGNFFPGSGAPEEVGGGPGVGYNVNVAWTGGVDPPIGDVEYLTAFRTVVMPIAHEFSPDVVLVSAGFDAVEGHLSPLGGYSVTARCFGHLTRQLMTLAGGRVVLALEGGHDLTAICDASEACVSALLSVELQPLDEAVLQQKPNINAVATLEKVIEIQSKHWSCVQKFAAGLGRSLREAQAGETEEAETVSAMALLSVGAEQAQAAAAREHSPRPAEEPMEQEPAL

In general, IC50 refers to the concentration needed to halve the response being measured. What is called GI50 is the concentration giving 50% growth inhibition. As for `CCCNNC(=O)c1ccc(CNC(=O)c2cc3cnccc3[nH]2)cc1`, the half-inhibitory concentration (IC50) in [1], in experiment [2], in [4], in experiment [5], in [7] and in [10] was above 10 µM each time. The GI50 in experiment [3] was found to be 0.0236 µM; in experiment [6], 0.0512 µM. In addition, the values for the CC50 in [8] and in experiment [9] were 0.0582 µM and above 100 µM, respectively.
For the compound `CCCNNC(=O)c1ccc(CNC(=O)/C=C/c2cccnc2)cc1`, the IC50 was above 10 µM in experiment [1]; above 10 µM in [2]; 0.0608 µM in experiment [3] (MV4-11, 48 h); above 10 µM in [4]; above 10 µM in experiment [5]; above 10 µM in [7]. The IC50 in [10] is above 10 µM. For the same compound, the GI50 came out at 0.0383 µM in experiment [3] and 0.0422 µM in [6]. For the same compound, the CC50 in [8] was 0.218 µM; in experiment [9] it was above 100 µM.
